{"source": "patent US20100204149A1", "about": "“USE OF OCTREOTIDE AS A THERAPEUTIC AGENT” (priority 2007, published 2010)", "key": {"[1]": {"test_system": "hepatitis B virus (HBV) ayw strain", "experiment": "HBV replication assay, secreted HBV DNA by TaqMan PCR", "assay_type": "cell-based", "conditions": "HepG2-2.2.15; peptide 10 micrograms per ml; six days; HBV DNA in supernatant"}, "[2]": {"experiment": "Cell viability (dye uptake) in HBV assay", "assay_type": "cell-based", "conditions": "human, HepG2-2.2.15, peptide 10 micrograms per ml"}, "[3]": {"test_system": "HCMV strain AD169", "experiment": "HCMV plaque reduction assay in MRC-5 cells", "assay_type": "cell-based", "conditions": "peptide 10 micrograms per ml, 7-10 days", "text": "Ganciclovir was used as positive control."}, "[4]": {"experiment": "Cytotoxicity testing in MRC-5 cells (CellTiter 96)", "assay_type": "cell-based", "conditions": "human, MRC-5 cells (embryonal lung fibroblasts); MRC-5 cells; 6 days incubation; read-out: % Cell viability", "description": "For cytotoxicity testing, MRC-5 cells were seeded at 2,500 cells/well in 96 well plates using growth medium. […] The following day, peptide was added and tested in duplicates. After a 6 days incubation period, cell viability was measured using CellTiter 96 Solution (Promega). Plates were incubated for additional 4 hours at 37° C."}, "[5]": {"test_system": "MRSA", "experiment": "Methicillin Resistant Staphylococcus Aureus (MRSA) assay", "assay_type": "cell-based", "conditions": "peptide 10 micrograms per ml, read visually", "description": "(§1) The antibacterial assay was conducted using clear, U-bottom 96-well microtiter plates. Cation-adjusted Mueller-Hinton Broth (MHB) was used for testing MRSA. The peptide of the invention (0.1 ml of each—10 micrograms per ml—) was dispensed into wells in duplicate. Then the wells were inoculated with 5×10^5 CFU/mL MRSA in 0.1 ml volume. For control purposes, each plate included 4 wells containing media without bacterial inoculum and 4 wells containing medium with inoculum but without peptide. The plates were incubated for 12 h at 37° C., and read visually 18-24 hours post-incubation. Growth control of MRSA was examined first to determine adequacy of media preparations and growth conditions. Acceptable growth is defined as ≧2 mm wide button of cells at the bottom of each sample well, or obvious turbidity in the culture supernatant. Test wells were examined and scored as positive/negative for activity. A positive score for activity is based on complete inhibition of macroscopic growth of the test MRSA."}, "[6]": {"test_system": "Streptococcus pneumoniae", "experiment": "Streptococcus pneumoniae assay", "assay_type": "cell-based", "conditions": "peptide 10 micrograms per ml, read visually", "description": "as §1, with “Streptococcus pneumoniae.” for “MRSA.”, “Streptococcus pneumoniae” for “MRSA”"}, "[7]": {"test_system": "spleen cells of Ovalbumin immunized Balb/c mice", "experiment": "Th1/Th2 cytokine profiling assay", "assay_type": "cell-based, mouse", "conditions": "peptide 10 micrograms per ml; Ovalbumin restimulation; 72 hours", "text": "The Balb/c mice (originated in 1923, it is a popular strain and is used in many different research disciplines. Also classified as an inbred from the production of 20 or more successive brother-sister matings, the Balb/c mouse is albino and small in size) were immunized on Days 1, 15, and 29 with Ovalbumin (Ovalbumin is the main protein found in egg white, commonly used to stimulate an immunological reaction in test animals) in PBS (5 micrograms/injection). On day 50, spleens of the mice were harvested (3 weeks after last boost with Ovalbumin). Cells were cultured (2×10^5/well in triplicate) and incubated with culture medium or test peptide—10 micrograms per ml—for 30 min. Thereafter, additional Ovalbumin was added to the cells at 10 micrograms/ml for in vitro restimulation of the cells. 72 hours later, cell supernatants were harvested and assayed using the Becton Dickinson Mouse Th1/Th2 Cytokine CBA Kit. This kit can be used to measure Interleukin-2 (IL-2), Interleukin-4 (IL-4), Interleukin-5 (IL-5), Interferon-γ (IFN-γ), and Tumor Necrosis Factor-α (TNF-α) protein levels in a single sample. The kit performance has been optimized for analysis of physiologically relevant concentrations ([…] levels) of specific cytokine proteins in tissue culture supernatants and serum samples."}, "[8]": {"test_system": "Primary Human endothelial cells (HUVEC)", "experiment": "Endothelial cell migration assay", "assay_type": "cell-based", "conditions": "peptide 10 micrograms per ml, 22 hours", "description": "Endothelial cell migration is a prerequisite for the process of neo-vascularization or angiogenesis which is crucial for on-site recruitment of blood vessel formation. Primary Human endothelial cells (HUVEC) were seeded in insert chambers with 3 micrometer pore size of multi-transwell plate for 6 hours at 37° C. in Endothelial Cell Basal Medium (EBM) supplemented with 0.1% bovine serum albumin. Thereafter, designated concentration of test peptide—10 micrograms per ml—was added in duplicate wells. The endothelia were allowed to migrate for 22 hours at 37° C., then, migrated cells were fixed and stained with Hoechst 33342 dye. Images of 3 fields per insert were taken and the number of migrated cells per field were quantified using the ImageProPlus software. Data were analyzed for the average number of the migrated cells and standard deviation of six data points for each treatment condition. Active test peptide against HUVEC migration was determined based on 50% inhibition of migrated cells as compared with the control. Statistic p values were computed using the Student's t-test."}, "[9]": {"test_system": "HUVEC", "experiment": "Endothelial tube formation assay", "assay_type": "cell-based, human", "conditions": "peptide 10 micrograms per ml, 20 hours", "description": "The endothelial tube formation assay is based on the ability of endothelial cells to form three-dimensional capillary-like tubular structures when cultured on a gel of basement membrane extract. The endothelial tube formation assay represents a powerful model for studying inhibition and induction of angiogenesis. Pre-labeled HUVEC with Calcein AM were seeded in a 96-well culture plate coated with extracellular metrix (Chemicon international Cat. ECM625) and treated with test peptide—10 micrograms per ml—in full growth medium. […] control was vehicle only. The endothelial cells were allowed to form tubes for 20 hours and were then examined under an inverted fluorescent microscope. Duplicate wells for each treatment were photographed and quantitatively analyzed for an average tubule length using image analysis software ImageProPlus. Raw data were expressed as average tubule lengths in pixels ±standard deviation. Statistic p values were computed using the Student's t-test."}, "[10]": {"experiment": "Cytotoxicity (MTS cell viability) in HIV-1 assay", "conditions": "human, CEM-SS cells"}}, "data": [{"smiles": "C[C@@H](O)[C@@H]1NC(=O)[C@H](CCCCN)NC(=O)[C@@H](Cc2c[nH]c3ccccc23)NC(=O)[C@H](Cc2ccccc2)NC(=O)[C@@H](NC(=O)[C@H](N)Cc2ccccc2)CSSC[C@@H](C(=O)N[C@H](CO)[C@@H](C)O)NC1=O", "note": "[Octreotide, H-D-Phe-Cys-Phe-D-Trp-Lys-Thr-Cys-L-threoninol]", "values": [{"measurement": "% inhibition of HBV replication in HEP G2 cells", "setting": "[1]", "value": 13.4, "unit": "%"}, {"measurement": "viability at 144 h, 10 micrograms per ml", "setting": "[2]", "value": 97.8, "unit": "%"}, {"measurement": "% plaque reduction", "setting": "[3]", "value": 0.0, "unit": "%"}, {"measurement": "viability at 144 h", "setting": "[4]", "value": 100, "unit": "%"}, {"measurement": "% inhibition", "setting": "[5]", "value": 0.0, "unit": "%"}, {"measurement": "% inhibition", "setting": "[6]", "value": 100.0, "unit": "%"}, {"measurement": "IFNγ spleen cells; TH1 response (% of control)", "setting": "[7]", "value": "56.0 % of control"}, {"measurement": "IL-2 spleen cells (% of control)", "setting": "[7]", "value": "159.5 % of control"}, {"measurement": "IL-4 spleen cells; TH2 response (% of control)", "setting": "[7]", "value": "114.4 % of control"}, {"measurement": "IL-5 spleen cells; TH2 response (% of control)", "setting": "[7]", "value": "96.1 % of control"}, {"measurement": "TNF-a spleen cells; TH1 response (% of control)", "setting": "[7]", "value": "113.0 % of control"}, {"measurement": "% inhibition of migration", "setting": "[8]", "value": "−24", "unit": "%"}, {"measurement": "% inhibition of tube formation", "setting": "[9]", "value": 8, "unit": "%"}, {"measurement": "viability at 10 micrograms per ml", "setting": "[10]", "value": 100, "unit": "%"}]}]}
